Measured values taken from patent US9751919B2, “Antimicrobial compositions comprising a hyaluronic acid binding peptide and a β-lactam antibiotic” (priority 2012, dated 2017).
Values joined by “and” are separate entries in the source; they are usually repeats but may differ in a detail not shown here. Equal entries are not always repeated. Where two headings read alike, the source gives them in different places. Marks after values point to notes of the source that are not given here.

Legend:
E. coli = test: Checkerboard assay (FIC index); assay type: cell-based, Escherichia coli; details: for synergy (in words): with β-lactams, against E. coli
Procedure: Checkerboard assays were carried out as described by Bonapace et al.
Diagnostic Microbiology and Infectious Diseases 2002; 44:363-366. In brief, checkerboard assays were performed in 96 well microtitre trays using an 8-by-8 well configuration. […] 96-well custom designed microtitre plates contained 100 ul/well of cation adjusted Mueller-Hinton broth (eg. for Enterobacteriaceae) with or without lysed horse blood (2-5% V/V) [eg. for S. pneumoniae] and were inoculated to achieve a final concentration of approximately 5×10^5 CFU/ml and incubated in ambient air for 24 hours prior to reading. Colony counts were performed periodically to confirm inocula. Quality control was performed every two weeks using a variety of ATCC QC organisms including; S. pneumoniae 49619, S. aureus 29213, E. faecalis 29212, E. coli 25922 and P. aeruginosa 27853. […] All peptides were assessed for synergy with β-lactams and vancomycin. For all antimicrobials as well as the peptides, CLSI criteria were used.
The fractional inhibitory concentration index (FIC index) was used to interpret synergy, antagonism or additivity/indifference. FIC index=FIC of drug A+FIC of drug B where:
The FIC of drug A and drug B was calculated as follows, FIC drug A=MIC of drug A in combination/MIC of drug A alone and FIC of drug B=MIC of drug B in combination/MIC of drug B alone. Synergy was defined as FIC index ≦0.5, additivity/indifference defined as a FIC between 0.5 and 4 and antagonism defined as an FIC index >4.
The checkerboard assays were carried out as described by Eliopoulos and Moellering (Chapter 9) in Antibiotic in Laboratory Medicine, Lorian Ed. 1996 as well as Bonapace et al. Diagnostic Microbiology and Infectious Diseases 2002; 44:363-366 and Bonapace et al. Diagnostic Microbiology and Infectious Diseases 2000; 38:43-50. In brief, checkerboard assays were performed in 96 well microtitre trays using an 8-by-8 well configuration. […] 96-well custom designed microtitre plates contained 100 ul/well of cation adjusted Mueller-Hinton broth (eg. for Enterobacteriaceae) with or without lysed horse blood (2-5% V/V) [eg. for S. pneumoniae] and were inoculated to achieve a final concentration of approximately 5×10^5 CFU/ml and incubated in ambient air for 24 hours prior to reading. Colony counts were performed periodically to confirm inocula. Quality control was performed every two weeks using a variety of ATCC QC organisms including; S. pneumoniae 49619, S. aureus 29213, E. faecalis 29212, E. coli 25922 and P. aeruginosa 27853. For all antimicrobials as well as PEP35, CLSI criteria was used.
The FIC of drug A and drug B is calculated as follows, FIC drug A=MIC of drug A in combination/MIC of drug A alone and FIC of drug B=MIC of drug B in combination/MIC of drug B alone. Synergy is defined as FIC index ≦0.5, additivity/indifference FIC >0.5-4 and antagonism FIC index >4.
Antimicrobials used included PEP35, cefazolin, ceftriaxone, vancomycin, linezolid, tigecycline and daptomycin versus Gram-positive cocci and PEP35, gentamicin, levofloxacin, piperacillin/tazobactam, meropenem and colistin (Polymyxin E) versus Gram-negative bacilli. These agents were obtained as laboratory grade powders from their respective manufacturers. Stock solutions were prepared and dilutions made as described by the Clinical Laboratory Standards Institute (2005 CLSI).
Organisms included Gram-positive cocci (2 strains of each): Methicillin-susceptible Staphylococcus aureus (MSSA), community-associated (CA) and healthcare-associated (HA) methicillin-resistant Staphylococcus aureus (MRSA), vancomycin-intermediate Staphylococcus aureus (VISA), vancomycin-resistant Staphylococcus aureus (VRSA), methicillin-resistant Staphylococcus epidermidis (MRSE), Streptococcus pyogenes, Streptococcus agalactiae, Streptococcus pneumoniae, Enterococcus faecalis, Enterococcus faecium and vancomycin-resistant enterococcus (VRE). […]

HA-MRSA = test: MIC (CLSI broth dilution), agent alone; assay type: cell-based, Staphylococcus aureus; details: for PEP35 (MIC): peptide alone
Method in brief: (§1)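 S. aureus isolates were tested by CLSI 2005 broth macrodilution in doubling dilutions of cation-adjusted Mueller-Hinton broth. Inoculum was about 5×10^5 CFU/ml, with 24 h incubation in ambient air. MIC was the lowest concentration inhibiting visible growth, with an MSSA and ATCC QC strains as controls.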

MSSA = test: MIC (CLSI broth dilution), agent alone; assay type: cell-based, Staphylococcus aureus; details: for MIC: agent alone
Method in brief: as §1

CA-MRSA = test: MIC (CLSI broth dilution), agent alone; assay type: cell-based, Staphylococcus aureus
Method in brief: as §1

[1] = antibiotic combined with PEP35, E. coli 69716
[2] = β-lactam combined with HybPEP35-1, E. coli 69716
[3] = β-lactam combined with PEP-52, E. coli 69716
[4] = β-lactam combined with Scrambled PEP35, E. coli 69716
[5] = HA-MRSA 70798 (USA100/800), agent alone, in µg/mL
[6] = HA-MRSA 77090 (USA100/800), agent alone
[7] = HA-MRSA 77090 (USA100/800), agent alone, in µg/mL
[8] = HA-MRSA 77090 (USA100/800)^a row, antibiotic alone, in µg/mL
[9] = HA-MRSA 77090 (USA100/800)^b row, antibiotic alone, in µg/mL
[10] = HA-MRSA 77098 (USA100/800), agent alone
[11] = CA-MRSA 69615 (USA400), agent alone
[12] = CA-MRSA 69615 (USA400)^a row, antibiotic alone, in µg/mL
[13] = CA-MRSA 69615 (USA400)^b row, antibiotic alone, in µg/mL
[14] = CA-MRSA 70857 (USA400), agent alone
[15] = CA-MRSA 69615 (USA400), agent alone, in µg/mL
[16] = CA-MRSA 70857 (USA400), agent alone, in µg/mL
[17] = antibiotic combined with PEP35, E. coli 70752

Molecule: Cc1nnc(SCC2=C(C(=O)O)N3C(=O)[C@@H](NC(=O)Cn4cnnn4)[C@H]3SC2)s1 [Cefazolin]
- Avg ΣFIC (range) (E. coli; [1]): 1.1
- Avg ΣFIC (range) (E. coli; [2]): 1.1
- Avg ΣFIC (range) (E. coli; [3]): >1*
- Avg ΣFIC (range) (E. coli; [4]): 1.1
- MICs alone, range (HA-MRSA; 50 HA-MRSA strains): 2 to 512 µg/mL
- strains resistant to the antibiotic (HA-MRSA; 50 HA-MRSA strains): 47 of the 50 strains
- MIC (HA-MRSA; [5]): 512
- MIC (HA-MRSA; [6]): 128 and 256/256
- MIC (HA-MRSA; [7]): 128 and 64
- MIC (HA-MRSA; [8]): 128
- MIC (HA-MRSA; [9]): 128
- MIC (HA-MRSA; [10]): 512/512
- MIC (HA-MRSA; Staphylococcus aureus, MRSA / USA200, HA-MRSA (CMRSA4/USA200), antibiotic alone, read-out: Cefazolin (MIC)): 256 µg/mL
- MIC (HA-MRSA; Staphylococcus aureus, MRSA / USA500, HA-MRSA (CMRSA5/USA500), antibiotic alone, read-out: Cefazolin (MIC)): 2 µg/mL
- MIC (HA-MRSA; Staphylococcus aureus, MRSA / USA600, HA-MRSA (CMRSA1/USA600), antibiotic alone, read-out: Cefazolin (MIC)): 128 µg/mL
- MIC (HA-MRSA; Staphylococcus aureus, MRSA, HA-MRSA (CMRSA3/6), antibiotic alone, read-out: Cefazolin (MIC)): 256 µg/mL
- MIC (HA-MRSA; Staphylococcus aureus, MRSA, HA-MRSA (CMRSA6), antibiotic alone, read-out: Cefazolin (MIC)): 256 µg/mL
- MIC (HA-MRSA; Staphylococcus aureus, MRSA, HA-MRSA (CMRSA8), antibiotic alone, read-out: Cefazolin (MIC)): 64 µg/mL
- MIC (MSSA; MSSA 79333): 1 and 0.5/0.5
- MIC (MSSA; MSSA 79333, listed as CEFAZOLIN): 0.5/0.5
- MIC (MSSA; S. aureus control): 0.5/0.5 ug/ml
- MIC (MSSA; Staphylococcus aureus, MSSA, S. aureus control, read-out: MIC): 0.5 µg/mL
- MICs alone, range (CA-MRSA; 50 CA-MRSA strains): 2 to 256 µg/mL
- strains resistant to the antibiotic (CA-MRSA; 50 CA-MRSA strains): 45 of the 50 strains
- MIC (CA-MRSA; [11]): 64 and 64/64
- MIC (CA-MRSA; [12]): 64
- MIC (CA-MRSA; [13]): 64
- MIC (CA-MRSA; [14]): 32 and 32/32
- MIC (CA-MRSA; Staphylococcus aureus, MRSA / USA400): 256 µg/mL

Molecule: CO/N=C(\C(=O)N[C@@H]1C(=O)N2C(C(=O)O)=C(CSc3nc(=O)c(=O)[nH]n3C)CS[C@H]12)c1csc(N)n1 [Ceftriaxone]
- Avg ΣFIC (range) (E. coli; [1]): 1.04
- Avg ΣFIC (range) (E. coli; [2]): 0.41
- Avg ΣFIC (range) (E. coli; [3]): >1*
- Avg ΣFIC (range) (E. coli; [4]): 0.41
- MIC (HA-MRSA; [5]): 2048
- MIC (HA-MRSA; [6]): 512 and 1024/1024
- MIC (HA-MRSA; [8]): 512
- MIC (HA-MRSA; [9]): 512
- MIC (HA-MRSA; [10]): 4096/4096
- MIC (MSSA; MSSA 79333): 8 and 4/4
- MIC (MSSA; MSSA 79333, listed as CEFTRIAXONE): 4/4
- MIC (CA-MRSA; [15]): 256 and 512
- MIC (CA-MRSA; CA-MRSA 69615 (USA400), agent alone, listed as CEFTRIAXONE, in µg/mL): 128 and 64
- MIC (CA-MRSA; [12]): 512
- MIC (CA-MRSA; [13]): 256
- MIC (CA-MRSA; [16]): 256 and 128

Molecule: C[C@@H](O)[C@H]1C(=O)N2C(C(=O)O)=C(S[C@@H]3CN[C@H](C(=O)N(C)C)C3)[C@H](C)[C@H]12 [Meropenem]
- Avg ΣFIC (range) (E. coli; [17]): 1.21 (1.03-1.5)
- Avg ΣFIC (range) (E. coli; [2]): 1.21
- Avg ΣFIC (range) (E. coli; [3]): >1*
- Avg ΣFIC (range) (E. coli; [4]): 1.21
- MIC (HA-MRSA; [5]): 64
- MIC (HA-MRSA; [10]): 64/64
- MIC (CA-MRSA; [14]): 2 and 4/4

Molecule: CN[C@H](CC(C)C)C(=O)N[C@H]1C(=O)N[C@@H](CC(N)=O)C(=O)N[C@H]2C(=O)N[C@H]3C(=O)N[C@H](C(=O)N[C@H](C(=O)O)c4cc(O)cc(O)c4-c4cc3ccc4O)[C@H](O)c3ccc(c(Cl)c3)Oc3cc2cc(c3O[C@@H]2O[C@H](CO)[C@@H](O)[C@H](O)[C@H]2O[C@H]2C[C@](C)(N)[C@H](O)[C@H](C)O2)Oc2ccc(cc2Cl)[C@H]1O [Vancomycin]
- MIC (HA-MRSA; [6]): 1/1
- MIC (MSSA; MSSA 79333): 1 and 0.5
- MIC (CA-MRSA; [11]): 1/1

Molecule: KKKKKLQLQLNLIKKKVQVSVVVVRRH (Reordered human peptide sequence) [Scrambled PEP35]
- synergy (in words) (E. coli): not synergistic (except at low level with ceftriaxone)
- MIC (HA-MRSA; [5]): 256
- MIC (HA-MRSA; [7]): 512
- MIC (MSSA; MSSA 79333, in µg/mL): 64
- MIC (CA-MRSA; [15]): 256
- MIC (CA-MRSA; [16]): 256

Molecule: LKQKIKHVVKLKVVVKLRSQLVKRKQN (listed as Mus sp.) [PEP35]
- synergy (in words) (E. coli): not synergistic
- MIC (HA-MRSA; [5]): 512
- MIC (HA-MRSA; [7]): 256 and 512
- PEP35 (MIC) (HA-MRSA; HA-MRSA (CMRSA1/USA600)): 256 µg/mL
- PEP35 (MIC) (HA-MRSA; HA-MRSA (CMRSA5/USA500)): 512 µg/mL
- PEP35 (MIC) (HA-MRSA; HA-MRSA (CMRSA8)): 1024 µg/mL
- MIC (MSSA; MSSA 79333, in µg/mL): 128 and 256
- PEP35 (MIC) (MSSA; S. aureus (printed without strain; control row), peptide alone): 1024 µg/mL
- MIC (MSSA; S. aureus control): 512 µg/mL
- MIC (CA-MRSA; [15]): 512
- MIC (CA-MRSA; CA-MRSA (CMRSA7/USA400/MW2) isolates, one per table line, agent alone): 512 µg/mL

Molecule: piperacillin/tazobactam
- Avg ΣFIC (range) (E. coli; [1]): 0.87 (0.56-1.12) and 0.63 (0.5-1.03)
- Avg ΣFIC (range) (E. coli; [17]): 0.98 (0.62-1.25) and 0.63 (0.24-1.03)
- Avg ΣFIC (range) (E. coli; [2]): 0.59
- Avg ΣFIC (range) (E. coli; β-lactam combined with HybPEP35-1, E. coli 70752): 0.67
- Avg ΣFIC (range) (E. coli; [3]): >1*
- Avg ΣFIC (range) (E. coli; β-lactam combined with PEP-52, E. coli 70752): >1*
- Avg ΣFIC (range) (E. coli; [4]): 0.59
- Avg ΣFIC (range) (E. coli; β-lactam combined with Scrambled PEP35, E. coli 70752): 0.67
- MIC (HA-MRSA; [5]): 4
- MIC (HA-MRSA; [7]): 16
- MIC (MSSA; MSSA 79333): ≦1
- MIC (CA-MRSA; [15]): 32
- MIC (CA-MRSA; [16]): 32
